The results in this text go back to patent US8912169B2, “Beta-lactamase inhibitors” (VenatoRx Pharmaceuticals, Inc., priority 2012, dated 2014).

One test deals with T1, SHV-5 (Klebsiella pneumoniae, UniProt P0A3M1).
T1 construct: made in house; host or cells: E. coli BL21(DE3)
Kind of test: β-lactamase enzyme inhibition, SHV-5. The conditions noted are these: substrate Cefotaxime, 260 nm; read-out: Class A SHV-5 IC50. In kind it is biochemical. In a few lines:
(§1)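 Native untagged β-lactamases expressed in E. coli BL21(DE3) and purified, then pre-incubated with inhibitor 15 min at 37 °C. Hydrolysis was followed by absorbance: 100 μM nitrocefin at 486 nm for p99 AmpC and OXA-1; imipenem at 300 nm for KPC-2; cefotaxime at 260 nm for SHV-5. IC50 from initial-rate inhibition versus uninhibited controls.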

The next test addresses T2, KPC-2 (Klebsiella pneumoniae, UniProt Q9F663).
T2 construct: made in house; host or cells: E. coli BL21(DE3)
Kind of test: β-lactamase enzyme inhibition, KPC-2. The conditions noted are these: substrate imipenem, 300 nm; read-out: Class A KPC-2 IC50. In kind it is biochemical. In a few lines:
as §1

In another test the target is T3, VIM-2 (Escherichia coli, UniProt Q5U7L7).
T3 construct: made in house; host or cells: E. coli BL21(DE3)
In words: β-lactamase enzyme inhibition, VIM-2. Type of test: biochemical. The conditions noted are these: substrate Nitrocefin 100 μM, 486 nm; read-out: Class B VIM-2 IC50. The method in brief:
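Purified VIM-2 (Q sepharose, 50 mM Hepes pH 7.5, >90% purity) preincubated with inhibitor 15 min at 37° C, then nitrocefin added at 100 μM final. Hydrolysis followed at 486 nm for 10 min; IC50 from initial rates versus inhibitor-free control wells.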

A further test has as its target T4, p99 AmpC (Enterobacter cloacae, UniProt P05364).
T4 construct: made in house; host or cells: E. coli BL21(DE3)
In words: β-lactamase enzyme inhibition, p99 AmpC. Type of test: biochemical. The following applies: substrate Nitrocefin 100 μM, 486 nm; read-out: Class C AmpC IC50. In a few lines: as §1

A further test concerns the target T5, OXA-1 (Escherichia coli, UniProt P13661).
T5 construct: made in house; host or cells: E. coli BL21(DE3)
Kind of test: β-lactamase enzyme inhibition, OXA-1. In kind it is biochemical. The following applies: substrate Nitrocefin 100 μM, 486 nm; read-out: Class D OXA-1 IC50. In a few lines: as §1

A further test deals with E. coli ESBL4 CTX-M-15. In words: broth microdilution MIC, E. coli CTX-M-15. The following applies: Fixed CAZ 4 μg/mL. In kind it is cell-based. The source says: (§2) To determine the ability of test compounds to potentiate the inhibition of the growth of bacterial strains that produce beta-lactamase enzymes, classic cell based broth microdilution MIC assays were employed. Six bacteria strains producing beta-lactamase enzymes were used: E. coli expressing the Class A Extended Spectrum Beta-Lactamase (ESBL) CTX-M-15, E. cloacae expressing the Class C P99, K. pneumoniae expressing the Class A carbapenemase KPC-3, P. aeruginosa expressing the Class B carbapenemase VIM-2, K. pneumoniae expressing the class A carbapenemase KPC-2 and the class B carbapenemase VIM-4, and S. aureus producing the Class A penicillinase PC-1. The assay was conducted in Cation Adjusted Mueller Hinton Broth (CAMHB, BD #212322, BD Diagnostic Systems, Sparks, Md.). Bacteria strains were grown for 3-5 hours in CAMBH broth. Test compounds were added to a microtiter plate in 2-fold serial dilutions in CAMHB in a final concentration range of 32 μg/mL to 0.25 μg/ml. An overlay of CAMHB containing a Beta-lactam was added to the compounds at a final static concentration of 4 μg/ml. […] In addition to the titration of test compounds the MICs of a panel of control beta-lactams is also tested to ensure the strains are behaving consistently from test to test. Once the test compound and antibiotics are added the plates can be inoculated according to CLSI broth microdilution method. After inoculation the plates are incubated for 16-20 hours at 37° C. then the Minimal Inhibitory Concentration (MIC) of the test compound is determined visually.
(§3) Using the methodology described above in EXAMPLE III, exemplary compounds for Formula I or Formula Ia were evaluated for their ability to inhibit the growth of β-lactamase producing bacteria in the presence of a β-lactam antibiotic. […]
(Dilution methods test growth across graded concentrations, often in twofold steps.)

The next test concerns E. cl. 144200 p99 AmpC. In words: broth microdilution MIC, E. cloacae P99. Type of test: cell-based. The conditions noted are these: Fixed CAZ 4 μg/mL.
Text: as §2, §3

A further test concerns K.P. 156319 KPC-3. Kind of test: broth microdilution MIC, K. pneumoniae KPC-3. Type of test: cell-based. The conditions noted are these: Fixed Mero 4 μg/mL.
Text: as §2, §3

In a further test the test system is P. aerug. Ps296 VIM-2. In words: broth microdilution MIC, P. aeruginosa VIM-2. Type of test: cell-based. The conditions noted are these: Fixed Mero 4 μg/mL.
Text: as §2
Using the methodology described above in EXAMPLE III, exemplary compounds for Formula I or Formula Ia were evaluated for their ability to inhibit the growth of β-lactamase producing bacteria in the presence of a β-lactam antibiotic.
Representative results are shown in Table 4 where A represents an MIC of the fixed β-lactam antibiotic in the presence of >32 μg/mL of a β-lactamase inhibitor of exemplary compounds, B represents the MIC in the presence of between 8 and 32 μg/mL of a β-lactamase inhibitor of exemplary compounds, and C represents the MIC in the presence of ≦4 μg/mL of a β-lactamase inhibitor of exemplary compounds. NT=Not Tested.

In another test the test system is K.P. A-1797 KPC-2 VIM-4. Kind of test: broth microdilution MIC, K. pneumoniae KPC-2 and VIM-4. The following applies: Fixed Mero 4 μg/mL. Type of test: cell-based.
Text: as §2, §3

For the substance “(3R)-3-[[2-[(1S,3S,4S)-3,4-bis(aminomethyl)cyclohexyl]acetyl]amino]-2-hydroxy-3,4-dihydro-1,2-benzoxaborinine-8-carboxylic acid and (3R)-3-[[2-[(1R,3R,4R)-3,4-bis(aminomethyl)cyclohexyl]acetyl]amino]-2-hydroxy-3,4-dihydro-1,2-benzoxaborinine-8-carboxylic acid [Example 18]”, the half-maximal inhibitory concentration (IC50) at SHV-5, at KPC-2, at VIM-2, at p99 AmpC and on OXA-1 was under 0.1 µM in each case. In addition, in the test with E. coli ESBL4 CTX-M-15, the “MIC of exemplary compounds in presence of fixed β-lactams, E. coli ESBL4 CTX-M-15” value (“MIC … E. coli ESBL4 CTX-M-15” for short) was “C (C represents the MIC in the presence of ≦4 μg/mL of a β-lactamase inhibitor of exemplary compounds)”. The “MIC of exemplary compounds in presence of fixed β-lactams, E. cl. 144200 p99 AmpC” value (shortened to “MIC … E. cl. 144200 p99 AmpC”) with E. cl. 144200 p99 AmpC is “C (C represents the MIC in the presence of ≦4 μg/mL of a β-lactamase inhibitor of exemplary compounds)”. Moreover, in the test with K.P. 156319 KPC-3, the “MIC of exemplary compounds in presence of fixed β-lactams, K.P. 156319 KPC-3” value (“MIC of exemplary compounds … K.P. 156319 KPC-3” below) was “C (C represents the MIC in the presence of ≦4 μg/mL of a β-lactamase inhibitor of exemplary compounds)”. Further, the “MIC of exemplary compounds in presence of fixed β-lactams, P. aerug. Ps296 VIM-2” value (from here on “MIC … P. aerug. Ps296 VIM-2”) with P. aerug. Ps296 VIM-2 was “C (C represents the MIC in the presence of ≦4 μg/mL of a β-lactamase inhibitor of exemplary compounds)”. Besides, the “MIC of exemplary compounds in presence of fixed β-lactams, K.P. A-1797 KPC-2 VIM-4” value (from here on “MIC … K.P. A-1797 KPC-2 VIM-4”) in the test with K.P. A-1797 KPC-2 VIM-4 is “B (B represents the MIC in the presence of between 8 and 32 μg/mL of a β-lactamase inhibitor of exemplary compounds)”.
On to “(3R)-3-[[(1S,3S,4S)-3,4-diaminocyclohexanecarbonyl]amino]-2-hydroxy-3,4-dihydro-1,2-benzoxaborinine-8-carboxylic acid and (3R)-3-[[(1R,3R,4R)-3,4-diaminocyclohexanecarbonyl]amino]-2-hydroxy-3,4-dihydro-1,2-benzoxaborinine-8-carboxylic acid [Example 20]”, for which the half-inhibitory concentration (IC50) was 1 to 10 µM on SHV-5; 0.1 to 1 µM on KPC-2; under 0.1 µM on VIM-2; under 0.1 µM on p99 AmpC; 0.1 to 1 µM at OXA-1. Further, the “MIC … E. coli ESBL4 CTX-M-15” value in the test on E. coli ESBL4 CTX-M-15 is on record as “C (C represents the MIC in the presence of ≦4 μg/mL of a β-lactamase inhibitor of exemplary compounds)”. Further, the “MIC … E. cl. 144200 p99 AmpC” value with E. cl. 144200 p99 AmpC is on record as “C (C represents the MIC in the presence of ≦4 μg/mL of a β-lactamase inhibitor of exemplary compounds)”. Further, in the test with K.P. 156319 KPC-3, the “MIC of exemplary compounds … K.P. 156319 KPC-3” value is listed as “C (C represents the MIC in the presence of ≦4 μg/mL of a β-lactamase inhibitor of exemplary compounds)”. For the same substance, in the test with P. aerug. Ps296 VIM-2, the “MIC … P. aerug. Ps296 VIM-2” value was “C (C represents the MIC in the presence of ≦4 μg/mL of a β-lactamase inhibitor of exemplary compounds)”. Moreover, the “MIC … K.P. A-1797 KPC-2 VIM-4” value with K.P. A-1797 KPC-2 VIM-4 was “B (B represents the MIC in the presence of between 8 and 32 μg/mL of a β-lactamase inhibitor of exemplary compounds)”.
On to “(3R)-3-[[(3S,4S)-3,4-diaminocyclopentanecarbonyl]amino]-2-hydroxy-3,4-dihydro-1,2-benzoxaborinine-8-carboxylic acid and (3R)-3-[[(3R,4R)-3,4-diaminocyclopentanecarbonyl]amino]-2-hydroxy-3,4-dihydro-1,2-benzoxaborinine-8-carboxylic acid [Example 19]”, for which the IC50 was 0.1 to 1 µM at SHV-5; under 0.1 µM at KPC-2; under 0.1 µM at VIM-2; under 0.1 µM at p99 AmpC; under 0.1 µM on OXA-1. Also, in the test on E. coli ESBL4 CTX-M-15, the “MIC … E. coli ESBL4 CTX-M-15” value is reported as “C (C represents the MIC in the presence of ≦4 μg/mL of a β-lactamase inhibitor of exemplary compounds)”. Further, the “MIC … E. cl. 144200 p99 AmpC” value in the test with E. cl. 144200 p99 AmpC is recorded as “C (C represents the MIC in the presence of ≦4 μg/mL of a β-lactamase inhibitor of exemplary compounds)”. The “MIC of exemplary compounds … K.P. 156319 KPC-3” value in the test on K.P. 156319 KPC-3 is recorded as “C (C represents the MIC in the presence of ≦4 μg/mL of a β-lactamase inhibitor of exemplary compounds)”. Moreover, in the test on P. aerug. Ps296 VIM-2, the “MIC … P. aerug. Ps296 VIM-2” value is “C (C represents the MIC in the presence of ≦4 μg/mL of a β-lactamase inhibitor of exemplary compounds)”. The “MIC … K.P. A-1797 KPC-2 VIM-4” value in the test with K.P. A-1797 KPC-2 VIM-4 was “C (C represents the MIC in the presence of ≦4 μg/mL of a β-lactamase inhibitor of exemplary compounds)”.

For orientation: IC50 means the concentration needed to halve the response being measured.
